Results as given in publication PMC6471177 (Pharmaceutics, 2019).

Assays:
[1] = Disappearance of docetaxel in rat intestinal microsomes with LC478; assay type: in vitro ADME; conditions: intestinal microsomes
Protocol: The hepatic and intestinal microsomes were prepared based on a similar reported method.
Adding 0.1 M phosphate buffer (pH 7.4) adjusted the total volume as 0.5 mL, and then the components were incubated at 37 °C using a thermomixer at 500 opm. After incubation of 15 and 30 min for the hepatic and intestinal microsomes, respectively, 1 mL of acetonitrile with 5 µg/mL of paclitaxel as an internal standard added to terminate the reaction.
The unweighted kinetic data from rat hepatic and intestinal microsomes were fitted using a single-site Michaelis–Menten Equation V = Vmax × [S]/(Km + [S])(4) where [S] is the substrate concentration, Vmax is maximal velocity, and Km is substrate concentration for half-maximal velocity. The CLint was calculated by dividing the Vmax by the Km.

[2] = cited from earlier work

**Q.** For CC(=O)O[C@@]12CO[C@@H]1C[C@H](O)[C@@]1(C)C(=O)[C@H](O)C3=C(C)[C@@H](OC(=O)[C@H](O)[C@@H](NC(=O)OC(C)(C)C)c4ccccc4)C[C@@](O)([C@@H](OC(=O)c4ccccc4)[C@H]21)C3(C)C [docetaxel], which “Vmax for disappearance of docetaxel” value ([1]; 0 µM LC478) is on record?
**A.** 0.109 ± 0.0502 nmol/min/0.3 mg protein

**Q.** What about the “Vmax for disappearance of docetaxel” value ([1]; 1 µM LC478) of the same compound?
**A.** 0.133 ± 0.0343 nmol/min/0.3 mg protein

**Q.** What about the “Vmax for disappearance of docetaxel” value ([1]; 5 µM LC478) of the same compound?
**A.** 0.133 ± 0.0737 nmol/min/0.3 mg protein

**Q.** And the “Vmax for disappearance of docetaxel” value ([1]; 10 µM LC478)?
**A.** 0.105 ± 0.0355 nmol/min/0.3 mg protein

**Q.** And the oral bioavailability [2]?
**A.** less than 5 % of the oral dose
